# Results: patent US8354403B2, “Pyrrolidine derived beta 3 adrenergic receptor agonists” (Merck Sharp & Dohme Corp., priority 2009, dated 2013)
# Structures can show the parent of a compound that is named as a salt.
# Molecular target: T1, human β3 adrenergic receptor (Homo sapiens, UniProt P13945)
# T1 construct: expressed in transfected cells; host or cells: Chinese hamster ovary (CHO) cells, stably transfected
# Experiment: Beta-3 agonist in vitro functional assay: cAMP production (LANCE TR-FRET) in CHO cells stably transfected with the cloned β3 receptor
# Format: cell-based
# Settings: Table 4; cAMP, CHO cells; read-out: Human β3 agonist functional activity
# How it was run: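 CHO cells stably expressing the cloned receptor, in HEPES-buffered HBSS with BSA and 0.6 mM IBMX, 6,000 cells/well, exposed to compound for 30 min at RT. cAMP read by LANCE TR-FRET against a cAMP standard curve. Isoproterenol defines maximal stimulation.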
# T1 sequence (P13945 whole entry): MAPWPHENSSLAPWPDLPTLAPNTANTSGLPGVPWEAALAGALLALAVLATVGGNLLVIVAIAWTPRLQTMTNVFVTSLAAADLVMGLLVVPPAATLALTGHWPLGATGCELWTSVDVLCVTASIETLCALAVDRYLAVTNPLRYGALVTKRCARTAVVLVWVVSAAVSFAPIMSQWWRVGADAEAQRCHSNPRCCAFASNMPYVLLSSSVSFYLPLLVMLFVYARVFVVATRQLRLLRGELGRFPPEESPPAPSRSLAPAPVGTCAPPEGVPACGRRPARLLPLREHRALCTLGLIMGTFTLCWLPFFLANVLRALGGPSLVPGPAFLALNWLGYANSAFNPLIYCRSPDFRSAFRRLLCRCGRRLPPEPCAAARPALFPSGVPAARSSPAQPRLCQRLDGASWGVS
row,EC50,SMILES
1,100 to 999 nM,Cc1nonc1C1CCCN1C(=O)c1ccc(C[C@@H]2CC[C@H]([C@H](O)c3ccccc3)N2)cc1 (some centres unmarked) [Example 14]
2,1 to 9.9 nM,O=C(c1ccc(C[C@@H]2CC[C@H]([C@H](O)c3ccccc3)N2)cc1)N1CCC2c3ccccc3OC2C1 (some centres unmarked) [Example 56]
3,10 to 99.9 nM,O=C(c1ccc(C[C@@H]2CC[C@H]([C@H](O)c3ccccc3)N2)cc1)N1CCC2(CCOC2=O)C1 (some centres unmarked) [Example 13]
4,100 to 999 nM,O=C(c1ccc(C[C@@H]2CC[C@H]([C@H](O)c3ccccc3)N2)cc1)N1CCc2oncc2C1 [Example 55]
5,100 to 999 nM,O=C(OCc1ccccc1)N1CC2(C1)CN(C(=O)c1ccc(C[C@@H]3CC[C@H]([C@H](O)c4ccccc4)N3)cc1)C2 [Example 5]
6,100 to 999 nM,O=C(c1ccc(C[C@@H]2CC[C@H]([C@H](O)c3ccccc3)N2)cc1)N1CCCC2(CCc3cc(F)ccc3O2)C1 (some centres unmarked) [Example 44]
7,100 to 999 nM,O=C(c1ccc(C[C@@H]2CC[C@H]([C@H](O)c3ccccc3)N2)cc1)N1CC2CC(n3cncn3)CC2C1 (some centres unmarked) [Example 22]

# Same assay, conditions: Table 5; cAMP, CHO cells; read-out: Human β3 agonist functional activity
row,EC50,SMILES
1,10 to 99.9 nM,O=C(c1ccc(C[C@@H]2CC[C@H]([C@H](O)c3ccccc3)N2)cc1)N1CCC(S(=O)(=O)c2ccc(F)cc2)CC1 [Example 128]
2,1 to 9.9 nM,O=C(c1ccc(C[C@@H]2CC[C@H]([C@H](O)c3ccccc3)N2)cc1)N1CCC(S(=O)(=O)c2ccccc2F)CC1 [Example 132]
3,100 to 999 nM,COc1cc(OC)nc(C2CCN(C(=O)c3ccc(C[C@@H]4CC[C@H]([C@H](O)c5ccccc5)N4)cc3)CC2)n1 [Example 115]
4,10 to 99.9 nM,O=C(c1ccc(C[C@@H]2CC[C@H]([C@H](O)c3ccccc3)N2)cc1)N1CCC(S(=O)(=O)O)CC1 [Example 141]
5,10 to 99.9 nM,O=C(c1ncco1)C1CCN(C(=O)c2ccc(C[C@@H]3CC[C@H]([C@H](O)c4ccccc4)N3)cc2)CC1 [Example 120]
6,10 to 99.9 nM,O=C(c1ccc(C[C@@H]2CC[C@H]([C@H](O)c3ccccc3)N2)cc1)N1CCC(c2nn[nH]n2)CC1 [Example 105]
7,10 to 99.9 nM,O=C(c1ccc(C[C@@H]2CC[C@H]([C@H](O)c3ccccc3)N2)cc1)N1CCC(S(=O)(=O)c2ccc(F)c(F)c2)CC1 [Example 138]

# Same assay, conditions: Table 7; cAMP, CHO cells; ranges as given for Tables 6 and 7; read-out: Human β3 agonist functional activity
row,EC50,SMILES
1,100 to 999 nM,O=C(O)C1C2CN(C(=O)c3ccc(CC4CCC(C(O)c5ccccc5)N4)cc3)CC21 (centres unmarked) [Example 231]

# Same assay, conditions: Table 8; Beta-3 agonist in vitro functional assay; read-out: Human β3 agonist functional activity
row,EC50,SMILES
1,100 to 999 nM,CC1(C)CC2(CCN(C(=O)c3ccc(C[C@@H]4CC[C@H]([C@H](O)c5ccccc5)N4)cc3)CC2)CO1 [Example 312]
2,10 to 99.9 nM,O=C(c1ccc(C[C@@H]2CC[C@H]([C@H](O)c3ccccc3)N2)cc1)N1CCC2(CC1)C(=O)Nc1ccccc12 [Example 299]
3,1 to 9.9 nM,O=C(c1ccc(C[C@@H]2CC[C@H]([C@H](O)c3ccccc3)N2)cc1)N1CCC2(CC1)C(=O)NCC2c1ccccn1 (some centres unmarked) [Example 266]
4,100 to 999 nM,O=C(c1ccc(C[C@@H]2CC[C@H]([C@H](O)c3ccccc3)N2)cc1)N1CCC2(CCOC2)CC1 [Example 311]
5,10 to 99.9 nM,O=C(c1ccc(C[C@@H]2CC[C@H]([C@H](O)c3cccnc3)N2)cc1)N1CCC2(CCOC2=O)CC1 [Example 292]
6,10 to 99.9 nM,Cc1ccc(CC2(O)CCN(C(=O)c3ccc(C[C@@H]4CC[C@H]([C@H](O)c5ccccc5)N4)cc3)CC2)cc1 [Example 246]
7,10 to 99.9 nM,O=C1NC(=O)C2(CCN(C(=O)c3ccc(C[C@@H]4CC[C@H]([C@H](O)c5cccnc5)N4)cc3)CC2)N1 [Example 268]
8,< 1 nM,O=C(c1ccc(C[C@@H]2CC[C@H]([C@H](O)c3ccccc3)N2)cc1)N1CCC2(CC1)C(=O)NCC2c1ccc(C(F)(F)F)cc1 (some centres unmarked) [Example 263]
9,100 to 999 nM,Cc1nnc(C2(C3CCCCC3)CCN(C(=O)c3ccc(C[C@@H]4CC[C@H]([C@H](O)c5ccccc5)N4)cc3)CC2)o1 [Example 249]
10,10 to 99.9 nM,O=C1OC2(CCN(C(=O)c3ccc(C[C@@H]4CC[C@H]([C@H](O)c5ccccc5)N4)cc3)CC2)c2scnc21 [Example 289]
11,1 to 9.9 nM,O=C1OC2(CCN(C(=O)c3ccc(C[C@@H]4CC[C@H]([C@H](O)c5ccccc5)N4)cc3)CC2)Cc2ccccc21 [Example 333]

# Same assay, conditions: Table 9; Beta-3 agonist in vitro functional assay; read-out: Human β3 agonist functional activity
row,EC50,SMILES
1,100 to 999 nM,Cn1ccnc1CN1CCN(C(=O)c2ccc(C[C@@H]3CC[C@H]([C@H](O)c4ccccc4)N3)cc2)CC1 [Example 396]
2,1 to 9.9 nM,O=C(c1ccc(C[C@@H]2CC[C@H]([C@H](O)c3ccccc3)N2)cc1)N1CCN(Cc2c(F)cccc2F)CC1 [Example 411]
3,10 to 99.9 nM,O=C(c1ccc(C[C@@H]2CC[C@H]([C@H](O)c3ccccc3)N2)cc1)N1CCN(S(=O)(=O)c2ccccc2)CC1 [Example 346]
4,10 to 99.9 nM,O=C(c1ccc(C[C@@H]2CC[C@H]([C@H](O)c3ccccc3)N2)cc1)N1CCN(C(=O)c2ccccn2)CC1 [Example 348]
5,10 to 99.9 nM,Cn1nnc(CN2CCN(C(=O)c3ccc(C[C@@H]4CC[C@H]([C@H](O)c5ccccc5)N4)cc3)CC2)n1 [Example 401]
6,100 to 999 nM,O=C(O)c1ccccc1N1CCN(C(=O)c2ccc(C[C@@H]3CC[C@H]([C@H](O)c4ccccc4)N3)cc2)CC1 [Example 350]
7,10 to 99.9 nM,CC(C)n1nnnc1CN1CCN(C(=O)c2ccc(C[C@@H]3CC[C@H]([C@H](O)c4ccccc4)N3)cc2)CC1 [Example 400]
8,100 to 999 nM,NC(=O)CN1CCN(C(=O)c2ccc(C[C@@H]3CC[C@H]([C@H](O)c4ccccc4)N3)cc2)CC1 [Example 388]
9,100 to 999 nM,O=C(c1ccc(C[C@@H]2CC[C@H]([C@H](O)c3ccccc3)N2)cc1)N1CCN(c2ccc3c(c2)OCCO3)CC1 [Example 354]

# Same assay, conditions: Table 10; Beta-3 agonist in vitro functional assay; read-out: Human β3 agonist functional activity
row,EC50,SMILES
1,10 to 99.9 nM,CC(C(=O)N(C)C(C1CC1)C1CC1)N1CCN(C(=O)c2ccc(C[C@@H]3CC[C@H]([C@H](O)c4ccccc4)N3)cc2)CC1 (some centres unmarked) [Example 523]
2,10 to 99.9 nM,CC(C(=O)NCc1cn2ccsc2n1)N1CCN(C(=O)c2ccc(C[C@@H]3CC[C@H]([C@H](O)c4ccccc4)N3)cc2)CC1 (some centres unmarked) [Example 467]
3,100 to 999 nM,CC(C)NC(=O)C(C)N1CCN(C(=O)c2ccc(C[C@@H]3CC[C@H]([C@H](O)c4ccccc4)N3)cc2)CC1 (some centres unmarked) [Example 437]
4,100 to 999 nM,CC(C(=O)NCc1nnc2n1CCC2)N1CCN(C(=O)c2ccc(C[C@@H]3CC[C@H]([C@H](O)c4ccccc4)N3)cc2)CC1 (some centres unmarked) [Example 466]
5,100 to 999 nM,CC(C(=O)N1Cc2cncnc2C1)N1CCN(C(=O)c2ccc(C[C@@H]3CC[C@H]([C@H](O)c4ccccc4)N3)cc2)CC1 (some centres unmarked) [Example 483]
6,100 to 999 nM,CC(C(=O)N(C)CCO)N1CCN(C(=O)c2ccc(C[C@@H]3CC[C@H]([C@H](O)c4ccccc4)N3)cc2)CC1 (some centres unmarked) [Example 519]

# Same assay, conditions: Table 11; cAMP, CHO cells; read-out: Human β3 agonist functional activity
row,EC50,SMILES
1,100 to 999 nM,C[C@@H]1CN(C(=O)c2ccc(C[C@@H]3CC[C@H]([C@H](O)c4ccccc4)N3)cc2)C[C@H](C)N1Cc1ccccn1 [Example 533]
2,100 to 999 nM,C[C@@H](c1ccccn1)N1CC2CC1CN2C(=O)c1ccc(C[C@@H]2CC[C@H]([C@H](O)c3ccccc3)N2)cc1 (some centres unmarked) [Example 538]
3,100 to 999 nM,C[C@@H]1CN(Cc2ccccn2)CCN1C(=O)c1ccc(C[C@@H]2CC[C@H]([C@H](O)c3ccccc3)N2)cc1 [Example 529]

row,SMILES,EC50
1,O=C(c1ccc(C[C@@H]2CC[C@H]([C@H](O)c3ccccc3)N2)cc1)N1C2CCC1CN(c1nccs1)C2 [Example 543],10 to 99.9 nM

# Same assay, conditions: Table 12; human β3 functional activity given as ranges; read-out: Human β3 agonist functional activity
row,EC50,SMILES
1,< 1 nM,"O=C(c1ccc(CC2CCC(C(O)c3ccccc3)N2)cc1)N1CCC2(CC1)C(=O)NCC2c1ccc(F)cc1 (single isomer, unassigned) [Example 558]"
2,10 to 99.9 nM,"CC(C)C1CC2(CCN(C(=O)c3ccc(CC4CCC(C(O)c5ccccc5)N4)cc3)CC2)C(=O)O1 (single isomer, unassigned) [Example 568]"
3,1 to 9.9 nM,"O=C(c1ccc(CC2CCC(C(O)c3ccccc3)N2)cc1)N1CCN(C2CCN(c3ccccc3)C2=O)CC1 (single isomer, unassigned) [Example 605]"
4,1 to 9.9 nM,"O=C(c1ccc(CC2CCC(C(O)c3ccccc3)N2)cc1)N1CCN(C(c2ccccn2)C2CC2)CC1 (single isomer, unassigned) [Example 590]"
5,1 to 9.9 nM,"CC(c1ccn(C)n1)N1CCN(C(=O)c2ccc(CC3CCC(C(O)c4ccccc4)N3)cc2)CC1 (single isomer, unassigned) [Example 577]"
6,1 to 9.9 nM,"CC(C)(C)C1CC2(CCN(C(=O)c3ccc(CC4CCC(C(O)c5ccccc5)N4)cc3)CC2)C(=O)O1 (single isomer, unassigned) [Example 569]"

# Same assay, conditions: given as a range; cAMP, CHO cells; read-out: human β3 functional activity
row,EC50,SMILES
1,1 to 9.9 nM,"O=C(c1ccc(CC2CCC(C(O)c3ccccc3)N2)cc1)N1CCC2(CC1)CC(C1CC1)OC2=O (single isomer, unassigned) [Ex. 554]"
2,10 to 99.9 nM,"CC(C(=O)N1CCC(F)(F)C1)N1CCN(C(=O)c2ccc(C[C@@H]3CC[C@H]([C@H](O)c4ccccc4)N3)cc2)CC1 (stereo partly drawn) [Example 432, (R)-{(2R,5S)-5-[4-({4-{2-(3,3,-Difluoropyrrolidin-1-yl)-1-methyl-2-oxoethyl]piperazine-1-yl}carbonyl)benzyl}pyrrolidin-2-yl)(phenyl)methanol, TFA salt]"
3,10 to 99.9 nM,"O=C(c1ccc(C[C@@H]2CC[C@H]([C@H](O)c3ccccc3)N2)cc1)N1CCC(c2cscn2)CC1 [Example 66, (R)-phenyl[(2R,5S)-5-(4-{[4-(1,3-thiazol-4-yl)-piperidin-1-yl]carbonyl}benzyl)pyrrolidine-2-yl]methanol]"

# Same assay, conditions: human β3 functional activity
row,SMILES,EC50
1,C[C@H](c1ccccn1)N1C2CCC1C1CCC2N1C(=O)c1ccc(C[C@@H]2CC[C@H]([C@H](O)c3ccccc3)N2)cc1 [Example 525],10 to 99.9 nM
2,C[C@@H](c1ccccn1)N1C2CCC1C1CCC2N1C(=O)c1ccc(C[C@@H]2CC[C@H]([C@H](O)c3ccccc3)N2)cc1 [Example 526],10 to 99.9 nM
